Key:
thiols in HeLa cells = experiment: Ratiometric two-photon microscopy imaging of thiols in HeLa cells; type: cell-based
Procedure: The images were acquired using 740 nm excitation and fluorescence emission windows of 425-475 nm (blue) and 525-575 nm (yellow). Scale bar: 20 μm. The cells shown are representative images obtained from repeated experiments (n=5).
It was tested if the two-photon fluorescent probe of the present invention can monitor the change of thiols in a living cell.
When the cells were pre-incubated for 1 day with α-lipolic acid which increases GSH production (FIG. 6 (b)), the Fyellow/Fblue ratio increased to 2.64. And, when treated with N-ethylmaleimide (NEM), a well-known thiol blocking agent, the Fyellow/Fblue ratio decreased to 0.77 (FIG. 6 (c)).

HeLa cells = experiment: Cytotoxicity, viability by CCK-8 kit; type: cell-based; settings: incubated 2 hours
Procedure: The cells were incubated with SSH-Mito for 2 hours.

[1] = Emission ratio change (Rmax/Rmin) before and after addition of GSH; settings: before and 2 hours after addition of 10 mM GSH
Procedure: (§1) Photophysical properties of the two-photon fluorescent probe (SSH-Mito) (Example 1) and the compound represented by Formula 6 were measured in MOPS buffer (30 mM MOPS, 100 mM KCl, pH 7.4).

[2] = Measurement of water solubility by fluorescence intensity versus concentration; type: physicochemical; settings: 30 mM MOPS, 100 mM KCl, pH 7.4; 0.2% DMSO
Procedure: A small amount of the two-photon fluorescent probe (SSH-Mito) prepared in Example 1 was dissolved in DMSO to prepare a stock solution (1.0×10^−2 M). The solution was diluted to 6.0×10^−3 to 6.0×10^−5 M and added to a cuvette containing 3.0 mL of a buffer (30 mM MOPS, 100 mM KCl, pH 7.4) using a microsyringe. In all cases, the concentration of DMSO in water was maintained at 0.2%. […] The maximum concentration in the linear region is determined as the solubility of the two-photon fluorescent probe.

[3] = Thiol selectivity and pH dependence of fluorescence response in MOPS buffer
Procedure: White and black bars represent the relative fluorescence intensity (Fyellow/Fblue) of SSH-Mito (5 μM) in the presence of various analytes before and after addition of GSH, respectively. Each spectrum was acquired 2 hours after addition of various analytes at 37° C.
The excitation wavelength was 380 nm.
White and black bars represent the relative fluorescence intensity before and after addition of GSH, respectively.

[4] = Measurement of photophysical properties in MOPS buffer; type: physicochemical; settings: for λ(1)max, λmax of one-photon absorption spectra: MOPS buffer (30 mM MOPS, 100 mM KCl, pH 7.4); for Φδ, two-photon action cross section / λ(2)max, λmax of two-photon excitation spectra / λfl max, λmax of one-photon emission spectra / 10^−4 ε, molar extinction coefficient (in parentheses) / Φ, fluorescence quantum yield / δ, peak two-photon cross section per photon: MOPS buffer pH 7.4; for 10^−4 ε, molar extinction coefficient (in parentheses): printed as 10^−4 ε; for Φ, fluorescence quantum yield / δ, peak two-photon cross section per photon: ±15%
Procedure: as §1

[5] = test system: thiols in rat hippocampal slices; experiment: Ratiometric two-photon microscopy imaging of rat hippocampal slices
Procedure: (a, d) Bright-field images of the CA1 and CA3 regions. (b, e) Ratiometric TPM images of rat hippocampal slices that were (b) not treated and (e) pretreated with NEM (100 μM) for 30 minutes before labeling with SSH-Mito. Ten TPM images were accumulated along the z-axis direction at depths of about 90-190 μm (10×). (c, f) Enlarged (40×) images of the red boxes in (b) and (e) at a depth of 120 μm. The two-photon excited fluorescence (TPEF) was collected in two channels (blue=425-475 nm, yellow=525-575 nm) upon excitation at 740 nm with a femtosecond (fs) pulse. Scale bars: 300 μm (a, d) and 75 μm (c, f)).
In order to investigate the utility of two-photon fluorescent probe of the present invention in tissue imaging, rat hippocampal slices were monitored.
Since the structure of the brain tissue is known to be inhomogeneous throughout its entire depth, 10 TPM images were obtained at depths of 90-190 μm and they were combined to visualize the overall thiol distribution. […] When the tissue was treated with 100 μM NEM for 30 minutes, the ratio decreased to 0.85 (FIG. 8 (f)).

solubility in the buffer [2] [µM] | λ(1)max, λmax of one-photon absorption spectra [4] [nm] | Φδ, two-photon action cross section [4] | λ(2)max, λmax of two-photon excitation spectra [4] [nm] | λfl max, λmax of one-photon emission spectra [4] [nm] | 10^−4 ε, molar extinction coefficient (in parentheses) [4] [M^−1 cm^−1] | Φ, fluorescence quantum yield [4] | δ, peak two-photon cross section per photon [4] [GM] | Compound | Fyellow/Fblue ratio (thiols in HeLa cells; HeLa cells pre-incubated for 1 day with α-lipolic acid) | Fyellow/Fblue ratio (thiols in HeLa cells; HeLa cells treated with N-ethylmaleimide (NEM)) | average emission ratio (Fyellow/Fblue) (thiols in HeLa cells; HeLa cells, TP excitation at 740 nm, no pretreatment) | viability of HeLa cells (cytotoxicity) (HeLa cells) | Rmax/Rmin, emission ratio (F525-575/F425-475) conversion factor, one-photon processes ([1]; one-photon) | Rmax/Rmin, emission ratio conversion factor, two-photon processes (in parentheses) ([1]; two-photon) | selectivity for GSH over other analytes ([3]; 5 μM probe, 10 mM analytes, 30 mM MOPS buffer pH 7.4) | fluorescence response toward compounds containing thiol groups ([3]; GSH, Cys, Hcy, DTT, 2-ME, 2-AET) | effect of pH on fluorescence ([3]; absence and presence of 10 mM GSH, MOPS buffer) | fluorescence response toward analytes without thiol groups ([3]; amino acids (Glu, Ser, Val, Met, Ala, Ile), metal ions (Na+, K+, Ca+, Mg2+, Zn2+) and H2O2) | average emission ratio ([5]; CA1 region, depth of 120 μm, not treated) | average emission ratio ([5]; tissue treated with 100 μM NEM for 30 minutes)
~5.0 | 338 | 80 | 740 | 462 | 2.05 | 0.82 | 95 | CN(C(=O)OCCSSCCN)c1ccc2cc(-c3nc4ccc(C(=O)NCC[P+](c5ccccc5)(c5ccccc5)c5ccccc5)cc4s3)ccc2c1 [SSH-Mito] | 2.64 | 0.77 | 1.24 | adequate for detecting thiols in living cells | 45 | 40 | high selectivity for GSH | strong responses | pH-insensitive at biologically relevant pH | negligible responses | 1.66 | 0.85
– | 383 | 55 | 750 | 545 | 1.50 | 0.12 | 550 | CNc1ccc2cc(-c3nc4ccc(C(=O)NCC[P+](c5ccccc5)(c5ccccc5)c5ccccc5)cc4s3)ccc2c1.[Br-] [Compound No. 6] | – | – | – | – | – | – | – | – | – | – | – | –

Reference: patent US9005917B2, “Variable color two-photon fluorescent probe, method for imaging thiol activation in mitochondrion using same, and method for manufacturing the variable color two-photon fluorescent probe” (Ajou University Industry-Academic Cooperation Foundation, priority 2011, dated 2015)
